The values that follow come from patent publication US20090197880A1 (Genelabs Technologies, Inc., priority 2007, published 2009).

This assay in a line: HCV replicon assay (luciferase) in ET (Huh-lucubineo-ET) cell line. The assay is classed as cell-based. Conditions: Hepatitis C virus, inhibition of replication relative to no compound control, ET replicon cells, luciferase 48-72 hours; for inhibition at 10 µM: tested at 10 μM, read-out: % inhition at 10 μM; for inhibition at 5 µM: tested at 5 μM. The text has this: A cell line, ET (Huh-lucubineo-ET) was used for screening of compounds, or pharmaceutically acceptable salts or solvates, described herein for inhibition of HCV RNA dependent RNA polymerase. The ET cell line was stably transfected with RNA transcripts harboring a I389luc-ubi-neo/NS3-3′/ET; replicon with firefly luciferase-ubiquitin-neomycin phosphotransferase fusion protein and EMCV-IRES driven NS3-5B polyprotein containing the cell culture adaptive mutations (E1202G; T1280I; K1846T) (Krieger at al, 2001 and unpublished). The ET cells were grown in DMEM, supplemented with 10% fetal calf serum, 2 mM Glutamine, Penicillin (100 IU/mL)/Streptomycin (100 μg/mL), 1× nonessential amino acids, and 250 μg/mL G418 (“Geneticin”). They were all available through Life Technologies (Bethesda, Md.). The cells were plated at 0.5−1.0×10^4 cells/well in the 96 well plates and incubated for 24 hrs before adding the test compounds. […] Luciferase activity was measured 48-72 hours later by adding a lysis buffer and the substrate (Catalog number Glo-lysis buffer E2661 and Bright-Glo luciferase system E2620 Promega, Madison, Wis.). Cells should not be too confluent during the assay. Percent inhibition of replication was plotted relative to no compound control. Under the same condition, cytotoxicity of the compounds was determined using cell proliferation reagent, WST-1 (Roche, Germany). The compounds showing antiviral activities, but no significant cytotoxicities were chosen to determine the EC50 and TC50, the effective concentration and toxic concentration at which 50% of the maximum inhibition is observed. For these determinations, 6 dilutions of each compound were used. Compounds were typically diluted 3 fold to span a concentration range of 250 fold. EC50 and similarly TC50 values were calculated by fitting % inhibition at each concentration to the following equation:
% inhibition=100%/[(EC50/[I])^b+1]
where b is Hill's coefficient.

As to `COc1ccc(-c2cc(Cn3cc4nc(-c5cccc(F)c5F)nc-4cn3)on2)cc1` [Compound 221, 2-(2,3-Difluoro-phenyl)-5-[3-(4-methoxy-phenyl)-isoxazol-5-ylmethyl]-5H-imidazo[4,5-d]pyridazine], the inhibition at 10 µM turned out to be 98.9%.

Regarding `CCCOc1ccc(-c2cc(Cn3cc4nc(-c5cccc(F)c5F)nc-4cn3)on2)cc1` [Compound 105, 2-(2,3-Difluoro-phenyl)-5-[3-(4-propoxy-phenyl)-isoxazol-5-ylmethyl]-5H-imidazo[4,5-d]pyridazine], the inhibition at 5 µM was 99.9% and the inhibition at 10 µM was determined as 99.7%.

`Fc1cc(-c2cc(Cn3cc4nc(-c5cccc(F)c5F)nc-4cn3)on2)ccc1C(F)(F)F` [Compound 206, 2-(2,3-Difluoro-phenyl)-5-[3-(3-fluoro-4-trifluoromethyl-phenyl)-isoxazol-5-ylmethyl]-5H-imidazo[4,5-d]pyridazine]: the inhibition at 10 µM is 98.1%.

For `Fc1cccc(-c2nc3cnn(Cc4cc(-c5ccc(CN6CCCC6)cc5)no4)cc-3n2)c1F` [Compound 219, 2-(2,3-Difluoro-phenyl)-5-[3-(4-pyrrolidin-1-ylmethyl-phenyl)-isoxazol-5-ylmethyl]-5H-imidazo[4,5-d]pyridazine], the inhibition at 10 µM came to 35%.

For `CC(C)c1ccc(-c2cc(Cn3cc4nc(-c5cccc(F)c5F)nc-4cn3)on2)cc1` [Compound 305, 2-(2,3-Difluoro-phenyl)-5-[3-(4-isopropyl-phenyl)-isoxazol-5-ylmethyl]-5H-imidazo[4,5-d]pyridazine], the inhibition at 10 µM was found to be 99.4%.

For the compound `Fc1cccc(-c2nc3cnn(Cc4cc(-c5ccc(CN6CCCCC6)cc5)no4)cc-3n2)c1F` [Compound 157, 2-(2,3-Difluoro-phenyl)-5-[3-(4-piperidin-1-ylmethyl-phenyl)-isoxazol-5-ylmethyl]-5H-imidazo[4,5-d]pyridazine], the inhibition at 10 µM came out at 9.99%.

On to `Fc1ccccc1-c1nc2cnn(Cc3cc(-c4ccc(Br)cn4)no3)cc-2n1` [Compound 289, 5-[3-(5-Bromo-pyridin-2-yl)-isoxazol-5-ylmethyl]-2-(2-fluoro-phenyl)-5H-imidazo[4,5-d]pyridazine], for which the inhibition at 10 µM is 57.3%.

For `COc1ccc(-c2ccc(-c3cc(Cn4cc5nc(-c6cccc(F)c6F)nc-5cn4)on3)cc2)cc1` [Compound 268, 2-(2,3-Difluoro-phenyl)-5-[3-(4′-methoxy-biphenyl-4-yl)-isoxazol-5-ylmethyl]-5H-imidazo[4,5-d]pyridazine], the inhibition at 10 µM stood at 93.7%.

`Fc1cccc(-c2nc3cnn(Cc4cc(-c5ccc(OCCCN6CCOCC6)cc5)no4)cc-3n2)c1F` [Compound 273, 2-(2,3-Difluoro-phenyl)-5-{3-[4-(3-morpholin-4-yl-propoxy)-phenyl]-isoxazol-5-ylmethyl}-5H-imidazo[4,5-d]pyridazine]: the inhibition at 10 µM amounted to 94%.

Consider `C[Si](C)(C)C#Cc1ccc(-c2cc(Cn3cc4nc(-c5cccc(F)c5F)nc-4cn3)on2)cc1` [Compound 332, 2-(2,3-Difluoro-phenyl)-5-[3-(4-trimethylsilanylethynyl-phenyl)-isoxazol-5-ylmethyl]-5H-imidazo[4,5-d]pyridazine], for which the inhibition at 10 µM stood at 99%.

`CC(C)Oc1ccc(-c2cc(Cn3cc4nc(-c5ccccc5F)nc-4cn3)on2)cc1` [Compound 112, 2-(2-Fluoro-phenyl)-5-[3-(4-isopropoxy-phenyl)-isoxazol-5-ylmethyl]-5H-imidazo[4,5-d]pyridazine]: the inhibition at 5 µM was 80.9% and the inhibition at 10 µM stood at 85.9%.

With `FC(F)(F)c1ccc(-c2cc(Cn3cc4nc(-c5ccccn5)nc-4cn3)on2)c(C(F)(F)F)c1` [Compound 231, 5-[3-(2,4-Bis-trifluoromethyl-phenyl)-isoxazol-5-ylmethyl]-2-pyridin-2-yl-5H-imidazo[4,5-d]pyridazine], the inhibition at 10 µM is 42%.

Take `Cc1ccc(-c2cc(Cn3cc4nc(-c5cccc(F)c5F)nc-4cn3)on2)cc1` [Compound 187, 2-(2,3-Difluoro-phenyl)-5-(3-p-tolyl-isoxazol-5-ylmethyl)-5H-imidazo[4,5-d]pyridazine]: the inhibition at 10 µM came out at 99.7%.

As for `Fc1cccc(-c2nc3cnn(Cc4cc(-c5ccc(-c6cn[nH]c6)cc5C(F)(F)F)no4)cc-3n2)c1F` [Compound 322, 2-(2,3-Difluoro-phenyl)-5-{3-[4-(1H-pyrazol-4-yl)-2-trifluoromethyl-phenyl]-isoxazol-5-ylmethyl}-5H-imidazo[4,5-d]pyridazine], the inhibition at 10 µM turned out to be 94.9%.

Take `CCCCCOc1ccc(-c2cc(Cn3cc4nc(-c5ccccc5F)nc-4cn3)on2)cc1` [Compound 107, 2-(2-Fluoro-phenyl)-5-[3-(4-pentyloxy-phenyl)-isoxazol-5-ylmethyl]-5H-imidazo[4,5-d]pyridazine]: the inhibition at 5 µM is 98.4% and the inhibition at 10 µM is 99.4%.

With `Fc1cccc(-c2nc3cnn(Cc4cc(-c5ccc(OCC6CCOCC6)cc5C(F)(F)F)no4)cc-3n2)c1F` [Compound 319, 2-(2,3-Difluoro-phenyl)-5-{3-[4-(tetrahydro-pyran-4-ylmethoxy)-2-trifluoromethyl-phenyl]-isoxazol-5-ylmethyl}-5H-imidazo[4,5-d]pyridazine], the inhibition at 10 µM came out at 100%.

In the case of `Fc1cc(C(F)(F)F)ccc1-c1cc(Cn2ccc3nc(-c4cccc(F)c4F)nc-3n2)on1` [Compound 247, 6-(2,3-Difluoro-phenyl)-2-[3-(2-fluoro-4-trifluoromethyl-phenyl)-isoxazol-5-ylmethyl]-2H-imidazo[4,5-c]pyridazine], the inhibition at 10 µM amounted to 80%.

For the compound `O=C(O)CCCOc1ccc(-c2cc(Cn3cc4nc(-c5cccc(F)c5F)nc-4cn3)on2)cc1` [Compound 274, 4-(4-{5-[2-(2,3-Difluoro-phenyl)-imidazo[4,5-d]pyridazin-5-ylmethyl]-isoxazol-3-yl}-phenoxy)-butyric Acid], the inhibition at 10 µM worked out at 54.9%.

For `Fc1ccccc1-c1nc2cnn(Cc3cc(-c4ccc(C(F)(F)F)cc4C(F)(F)F)no3)cc-2n1` [Compound 114, 5-[3-(2,4-Bis-trifluoromethyl-phenyl)-isoxazol-5-ylmethyl]-2-(2-fluoro-phenyl)-5H-imidazo[4,5-d]pyridazine], the inhibition at 5 µM turned out to be 99.3% and the inhibition at 10 µM was 98.5%.

For `Fc1cccc(-c2nc3cnn(Cc4cc(-c5ccc(OCc6ccccc6)cc5)no4)cc-3n2)c1F` [Compound 173, 5-[3-(4-Benzyloxy-phenyl)-isoxazol-5-ylmethyl]-2-(2,3-difluoro-phenyl)-5H-imidazo[4,5-d]pyridazine], the inhibition at 10 µM came out at 98.7%.

Consider `Fc1ccccc1-c1nc2cnn(Cc3cc(-c4cccc(C(F)(F)F)c4)no3)cc-2n1` [Compound 276, 2-(2-Fluoro-phenyl)-5-[3-(3-trifluoromethyl-phenyl)-isoxazol-5-ylmethyl]-5H-imidazo[4,5-d]pyridazine], for which the inhibition at 10 µM worked out at 60%.

For `C#CCOc1ccc(-c2cc(Cn3cc4nc(-c5cccc(F)c5F)nc-4cn3)on2)cc1` [Compound 327], the inhibition at 10 µM was 99.7%.

As to `Fc1ccc(-c2cc(Cn3cc4nc(-c5cccc(F)c5F)nc-4cn3)on2)c(C(F)(F)F)c1` [Compound 101, 2-(2,3-Difluoro-phenyl)-5-[3-(4-fluoro-2-trifluoromethyl-phenyl)-isoxazol-5-ylmethyl]-5H-imidazo[4,5-d]pyridazine], the inhibition at 5 µM was 80.3% and the inhibition at 10 µM was 92.9%.

For `O=C(COc1ccc(-c2cc(Cn3cc4nc(-c5cccc(F)c5F)nc-4cn3)on2)cc1)NC1CC1` [Compound 271, N-Cyclopropyl-2-(4-{5-[2-(2,3-difluoro-phenyl)-imidazo[4,5-d]pyridazin-5-ylmethyl]-isoxazol-3-yl}-phenoxy)-acetamide], the inhibition at 10 µM amounted to 2.27%.

`Fc1ccccc1-c1nc2cnn(Cc3nnc(-c4ccc(Cl)cc4)o3)cc-2n1` [Compound 291, 5-[5-(4-Chloro-phenyl)-[1,3,4]oxadiazol-2-ylmethyl]-2-(2-fluoro-phenyl)-5H-imidazo[4,5-d]pyridazine]: the inhibition at 10 µM came to 22.5%.

In the case of `CC(C)Cc1ccc(-c2cc(Cn3cc4nc(-c5cccc(F)c5F)nc-4cn3)on2)c(C(F)(F)F)c1` [Compound 323, 2-(2,3-Difluoro-phenyl)-5-[3-(4-isobutyl-2-trifluoromethyl-phenyl)-isoxazol-5-ylmethyl]-5H-imidazo[4,5-d]pyridazine], the inhibition at 10 µM is 100%.

For `CC(C)(c1cc(-c2ccc(C(F)(F)F)cc2C(F)(F)F)no1)n1cc2nc(-c3cccc(F)c3F)nc-2cn1` [Compound 227, 5-{1-[3-(2,4-Bis-trifluoromethyl-phenyl)-isoxazol-5-yl]-1-methyl-ethyl}-2-(2,3-difluoro-phenyl)-5H-imidazo[4,5-d]pyridazine], the inhibition at 10 µM amounted to 97.9%.
